Test results as given in US9249128B2 (priority 2010, dated 2016).
Where two headings read alike, the source gives them in different places.

Assays:
KIAA1363 [1] = target: T1, KIAA1363 (Homo sapiens, UniProt Q6PIU2); experiment: Competitive ABPP of tumors explanted from treated mice; format: in vivo, mouse; parameters: PC3 cancer cells, which have high endogenous KIAA1363 levels; endogenous in cells; host or cells: PC3 (2-acetyl MAGE assay also DU145 and SKOV3); settings: 80 mg/kg oral daily; tumors removed 4 hr after final dose (day 33)
T1 sequence (Q6PIU2 1-408): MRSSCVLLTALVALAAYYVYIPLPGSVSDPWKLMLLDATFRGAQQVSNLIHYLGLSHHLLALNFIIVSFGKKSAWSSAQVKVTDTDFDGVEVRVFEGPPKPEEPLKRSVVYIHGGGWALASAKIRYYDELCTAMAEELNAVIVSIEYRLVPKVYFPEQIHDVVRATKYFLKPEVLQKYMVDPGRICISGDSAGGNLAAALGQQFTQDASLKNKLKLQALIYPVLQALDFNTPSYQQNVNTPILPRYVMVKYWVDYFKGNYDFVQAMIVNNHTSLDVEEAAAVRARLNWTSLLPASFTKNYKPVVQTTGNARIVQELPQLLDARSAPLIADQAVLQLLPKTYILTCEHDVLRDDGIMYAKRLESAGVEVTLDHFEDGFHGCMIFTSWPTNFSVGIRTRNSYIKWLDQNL
Procedure: (§1) For ABPP experiments, cell lysate and tissue proteomes were treated with 1 μM FP-rhodamine for 30 min at room temperature (50 μL total reaction volume) as described previously (Nomura et al., 2010). Reactions were quenched with one volume of standard 4×SDS/PAGE loading buffer (reducing), separated by SDS/PAGE (10% acrylamide), and visualized in-gel with a Hitachi FMBio IIe flatbed fluorescence scanner (MiraiBio). Inhibitors were preincubated prior (30 min or 4 h at 37° C. in vitro or in situ, respectively) to the addition of FP-rhodamine.
Human cancer xenografts were established by transplanting cancer cell lines ectopically into the flank of C.B17 SCID mice (Taconic Farms). Briefly, cells were washed two times with PBS, trypsinized, and harvested in serum-containing medium. Next, the harvested cells were washed two times with serum-free medium and resuspended at a concentration of 2.0×10^4 cells/μL and 100 μL was injected. Growth of the tumors was measured every 3 days with calipers. For chronic JW480 treatment studies, mice were treated with JW480 or vehicle once daily (at approximately the same time everyday) by oral gavage in PEG300 (4 μL/g mouse). The treatments were initiated immediately after ectopic injection of cancer cells.

[2] = tested on: serine hydrolase activities detected in the brain proteome; experiment: Competitive ABPP-MudPIT of brain membrane proteomes from treated mice; format: in vivo, mouse; settings: 20 mg/kg, oral gavage, 4 hr; off-target is carboxylesterase ES1
Procedure: Competitive ABPP-MudPIT experiments were performed as previously described (Nomura et al., 2010). Briefly, 1 mg of proteome was labeled with 5 μM FP-biotin, followed by solubilization with 1% Triton X-100, denaturation by SDS and heating, avidin precipitation of labeled proteins, and on-bead tryptic digest. Tryptic peptides were then loaded on to a biphasic (strong cation exchange/reverse phase) capillary column and analyzed by two-dimensional liquid chromatography (2D-LC) separation in combination with tandem mass spectrometry using an Agilent 1100 LC system coupled with a ThermoFisher LTQ linear ion trap mass spectrometer. Spectral counts are reported as the average of three samples with the standard error of the mean (SEM).
JW480 was administered by oral gavage (in PEG300, 4 μL/g mouse) or intraperitoneally (in 18:1:1 v/v/v solution of saline:ethanol:emulphor, 10 μL/g). After the indicated amount of time, mice were anesthetized with isoflurane and killed by decapitation. Tissues were removed and then flash frozen in liquid N2. Tissues were stored at −80° C. until use. Animal experiments were conducted in accordance with the guidelines of the institutional Animal Care and Use Committee of The Scripps Research Institute.

KIAA1363 [3] = target: T1, KIAA1363; experiment: Gel-based competitive ABPP of living PC3 cells, in situ treatment; format: cell-based; parameters: PC3 cancer cells, which have high endogenous KIAA1363 levels; endogenous in cells; host or cells: PC3; settings: for IC50: in situ treatment
Procedure: Inhibitors were dissolved in DMSO and diluted into media or buffer prior to cell or proteome treatment, respectively. For in vitro treatment, final DMSO concentration was 4%. For in situ treatments of cells for ABPP, lipid measurements, migration, cell-survival, and invasion assays, 2×10^6 cells were seeded in 6 cm dishes (˜100% confluency) 24 h prior to inhibitor pre-treatment (in DMSO at 0.1% final concentration) in serum-free media (3 mL) for the designated time before harvesting cells for ABPP or lipid measurements or before the initiation of migration, cell-survival, and invasion assays.
as §1
JW576 was dissolved in DMSO and diluted into media or buffer prior to cell or proteome treatment, respectively. For in vitro treatment, final DMSO concentration was 4%. For in situ treatments of cells for ABPP, 2×10^6 cells were seeded in 6 cm dishes (100% confluency) 24 hr prior to JW576 pretreatment with or without JW480 (in DMSO at 0.1% final concentration) in serum-free media (3 ml) for the designated time before harvesting cells for ABPP.
For ABPP experiments, cell lysate and tissue proteomes were treated with 1 μM FP-rhodamine for 30 min at room temperature ([…]). Reactions were quenched with one volume of standard 4×SDS/PAGE loading buffer (reducing), separated by SDS/PAGE (10% acrylamide), and visualized in-gel with a Hitachi FMBio IIe flatbed fluorescence scanner (MiraiBio). For experiments involving a preincubation with JW576 in the presence or absence of the non-fluorescent competitor JW480, the reactions were prepared without FP-rhodamine. JW576 were added at the indicated concentration and incubated for the indicated time at 37° C. FP-rhodamine was then added and the reaction was carried out exactly as described above.

KIAA1363 [4] = target: T1, KIAA1363; experiment: 2-acetyl MAGE hydrolytic activity assay in cancer cells treated in situ; format: cell-based; parameters: PC3 cancer cells, which have high endogenous KIAA1363 levels; endogenous in cells; host or cells: PC3 (2-acetyl MAGE assay also DU145 and SKOV3); settings: JW480 1 μM, 48 h; PC3 and DU145 cells
Procedure: Cells were pretreated with KIAA1363 inhibitors in situ (for 4 hr in serum-free F-12K media before harvesting cells by scraping) or in vitro (for 30 min at 37° C. in PBS) before addition of 2-acetyl MAGE (100 μM) to cell lysates at room temperature for 30 min in a volume of 200 μL. Reactions were quenched with 600 μL 2:1 chloroform:methanol and 10 nmol of C12:0 MAGE internal standard was added. The organic layer was extracted and 30 μL injected into an Agilent 1100-MSD LC-MS. LC-MS settings were as previously described (Chiang et al., 2006). Product levels (C16:0 MAGE) were quantified in relation to the internal standard. Specific activity was determined during the linear phase of enzymatic reactions (i.e., less than 20% substrate utilized).
Cell lysates (20 μg) in Tris buffer were then incubated with lipid (100 mM, e.g., 2-acetyl MAGE for KIAA1363 activity) at room temperature for 30 min in a volume of 200 ml. Reactions were quenched with 600 ml 2:1 chloroform:methanol and 10 nmol of C12:0 MAGE internal standard was added. […] Product levels (C16:0 MAGE for KIAA1363 activity) were quantified in relation to internal standard levels and standard curves generated between varying lipid concentration versus constant internal standard levels. Specific activity was determined during the linear phase of enzymatic reactions (i.e., less than 20% substrate utilized)

`CC(C)c1ccccc1OC(=O)NCCc1ccc2ccccc2c1` [JW480, 2-isopropylphenyl (2-(naphthalen-2-yl)ethyl)carbamate] was tested, and the “KIAA1363 activity in explanted tumors” value (KIAA1363 [1]) was “completely ablated”, the “Off-targets among ~30 brain serine hydrolase activities (ABPP-MudPIT)” value [2] was “only a single off-target was observed” and the “Duration of in situ inhibition of KIAA1363” value (KIAA1363 [3]; JW480 1 μM, PC3 cells) was “at least 48 hr”. For the same molecule, the IC50 (KIAA1363 [3]; PC3 cells, read-out: IC50 for KIAA1363, in situ (FIG. 3B)) was 6 nM, the IC50 (KIAA1363 [3]; presence or absence of 10% fetal calf serum, read-out: IC50 for KIAA1363 in living PC3 cells) was 6 to 12 nM and the “2-acetyl MAGE hydrolase activity” value (KIAA1363 [4]) was “completely blocked”.
